Measurements published in patent US10738082B2, “One-bead-two-compound macrocyclic library and methods of preparation and use” (University of South Florida, priority 2017, dated 2020).

Legend:
cell migration = conditions: 10 μM, 24 hours
Method: Invasion and migration assays were performed as described before. Cells were plated into the top chambers and treated with either vehicle or 10 μM C-84. 24 hours later cells in top chamber were scraped and migrated cells were fixed with crystal violet staining.

cell invasion = assay: Cell invasion assay; assay type: cell-based; conditions: 10 μM, 24 hours
Method: Invasion and migration assays were performed as described before.

GST protein = GST protein (Schistosoma japonicum, UniProt P08515); assay: Fluorescence polarization (FP) binding assay, GST protein
Chain of GST protein (P08515 whole entry): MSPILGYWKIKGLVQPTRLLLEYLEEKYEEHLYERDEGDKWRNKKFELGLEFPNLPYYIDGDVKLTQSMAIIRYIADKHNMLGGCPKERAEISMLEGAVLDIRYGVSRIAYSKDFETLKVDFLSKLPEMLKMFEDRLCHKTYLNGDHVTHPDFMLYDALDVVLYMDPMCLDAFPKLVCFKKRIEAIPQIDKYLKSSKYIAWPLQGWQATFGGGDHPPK

Row | SMILES | decrease in cell migration (cell migration) | decrease in cell invasion (cell invasion) | GST binding weaker than EphA2 binding (GST protein; Kd GST vs Kd EphA2) | Kd (GST protein; fluorescence polarization, 50 nM FITC labeled AApeptide, GST 0.3125 to 55 μM, read-out: binding affinity to GST protein, Kd)
1 | NC(=O)CN1C[C@H](Cc2ccccc2)NC(=O)CN(C(=O)CCC(=O)O)C[C@H](CCC(=O)O)NC(=O)CN(C(=O)Cc2ccc3c(c2)OCO3)C[C@H](CCC(=O)O)NC(=O)CN(C(=O)CCC2CCCCC2)C[C@H](Cc2ccccc2)NC(=O)c2ccc(cc2)CSCCC1=O [C-84] | around 70% | ~80% |  | 
2 | NC(=O)[C@H](CCCCNC(=S)Nc1ccc(-c2c3ccc(=O)cc-3oc3cc(O)ccc23)c(C(=O)O)c1)NC(=O)CN1C[C@H](Cc2ccccc2)NC(=O)CN(C(=O)CCC(=O)O)C[C@H](CCC(=O)O)NC(=O)CN(C(=O)Cc2ccc3c(c2)OCO3)C[C@H](CCC(=O)O)NC(=O)CN(C(=O)CCC2CCCCC2)C[C@H](Cc2ccccc2)NC(=O)c2ccc(cc2)CSCCC1=O [YS-D-44] |  |  | ~150 fold | 12.3 µM
